Tests used:
[1] = tested on: agonist-induced [Ca2+]i elevation; test: Cytoplasmic calcium measurement by Fura-2 fluorescence in HT-29 cells; format: cell-based, human; details: pretreatment at high concentration prior to agonist
Procedure: [Ca^2+]i was measured in confluent monolayers of HT-29 cells after loading with Fura-2 (2 μM Fura-2-AM, 30 min, 37° C.). Labeled cells were mounted in a perfusion chamber on the stage of an inverted epifluorescence microscope. Cells were superfused with (in mM): 140 NaCl, 5 KCl, 1 MgCl2, 1 CaCl2, 10 D-glucose, and 10 HEPES (pH 7.4), initially without and then with ATP/carbachol. Test compounds were present in some experiments for 10 min prior to agonist addition. Fura-2 fluorescence was recorded at excitation wavelengths of 340 nm and 380 nm using standard procedures

[2] = tested on: calcium-activated chloride channel (CaCC); test: YFP fluorescence plate reader iodide influx assay in HT-29 cells (ATP/carbachol); format: cell-based, human; details: semi-quantitative
Procedure: Screening was performed using a customized screening system (BECKMAN COULTER, Inc., Indianapolis, Ind.) consisting of the SAGIAN Core system integrated with SAMI software, and equipped with an ORCA arm for labware transport, a 96-channel head BIOMEK FX, CO2 incubator, plate washer, bar code reader, delidding station, and two FLUOstar OPTIMA fluorescence plate readers (BMG Labtechnologies, Durham, N.C.), each equipped with syringe pumps and custom excitation/emission filters (500/544 nm; CHROMA, Brattleboro, Vt.).
HT-29 cells expressing YFP-H148Q/I152L were plated in 96-well plates at 70% confluence. Plates were incubated overnight at 37° C., 5% CO2 and then the growth medium was replaced with fresh growth medium. […] YFP fluorescence was measured 1 s before and for 30 s after addition of a PBS-iodide solution (PBS that has 100 mM chloride replaced by iodide) containing carbachol and ATP (100 μM each). Each 96-well plate contained ‘positive’ controls (DMSO vehicle without agonists or test compounds) and ‘negative’ controls (DMSO vehicle with agonists but without test compounds). In some experiments solutions included (individually or in combination): carbachol, ATP, or histamine (at 50, 100, 150 or 200 μM), calcimycin (10 μM), thapsigargin (2 μM) and CFTRinh-172 (20 μM).
Iodide influx (d[I^−]/dt at t=0) was computed from fluorescence time course data by single exponential regression, as described (Ma et al., J. Clin. Invest. 110:1651-8 (2002)). Percentage inhibition was computed as: percentage inhibition=100×(Slopenegative control−Slopetest compound)/(Slopenegative control−Slopepositive control).

CaCC in T84 cells = test: Short-circuit current (chloride secretion) in T84 cell monolayers; format: cell-based, human
Procedure: ATP/carbachol were used to induce calcium-dependent chloride secretion in well-differentiated T84 cell monolayers. T84 cells were seeded at a density of 10^5 cm^−2 on permeable supports (Snapwell, 1.12 cm^2 surface area) and grown until confluent. Supports containing confluent cell monolayers were mounted in Snapwell diffusion chambers. Cells were bathed for a 30 min stabilization period in HCO3^−-buffered solution containing (mmol/L): 120 NaCl, 5 KCl, 1 MgCl2, 1 CaCl2, 10 D-glucose, 5 HEPES, and 25 NaHCO3 (pH 7.4), aerated with 95% O2/5% CO2 at 37° C. Monolayers were voltage-clamped at 0 mV (EVC4000 Multi-Channel V/I Clamp, World Precision Instruments), and short-circuit current (Isc) was recorded continuously with agonists/inhibitors added at specified times.

CaMKII phosphorylation = CaMKII phosphorylation immunoblot in HT-29 cells; format: cell-based; details: 30 μM pretreatment, ATP/carbachol
From the text: CaMKII Regulation of CaCC activation by CaMKII occurs in a cell type-dependent manner (Hartzell et al., Annu. Rev. Physiol. 67:719-58 (2005)). CaMKII has been reported to regulate calcium-activated chloride current in HT-29 and T84 cells (Worrell et al., Am. J. Physiol. 260:C877-82 (1991); Morris et al., Am. J. Physiol. 264:C977-85 (1993); Chan et al., J. Biol. Chem. 269:32464-8 (1994); Braun et al., J. Physiol. 488:37-55 (1995)). To determine whether the CaCC inhibitors interfered with ATP/carbachol-induced CaMKII activation, CaMKII phosphorylation in HT-29 cells was measured by immunoblot analysis. Calcium/calmodulin-dependent protein kinase II (CaMKII) was activated by 2 min treatment of HT-29 cells with ATP/carbachol (each 100 μM). Cells were then lysed with cell lysis buffer (20 mM Tris-HCl (pH 7.4), 1% Triton X-100, 150 mM NaCl, 2 mM EDTA, 50 mM α-glycerolphosphate, 1 mM Na3VO4, 1 mM DTT, and complete protease inhibitor mixture (Roche Applied Science)). Cell debris was removed by centrifugation, and proteins in the supernatant were resolved by SDS-PAGE and immunoblotted using standard procedures (transfer to PDVF membrane, 1 h blocking in 5% nonfat dry milk, primary/secondary antibody incubations, enhanced chemiluminescence detection). Rabbit polyclonal antibodies for anti-phospho-CaMKII (Thr286) and β-actin were purchased from Cell Signaling Technology (Danvers, Mass.).

[3] = tested on: calcium-activated chloride channel (CaCC); test: Whole-cell patch-clamp of calcium-dependent chloride current in HT-29 cells; format: cell-based, human; details: for calcium-dependent chloride current reduced: 1 μM ionomycin, HT-29; for ionomycin-induced chloride currents, symmetric NMDG-Cl solutions: whole-cell, pretreatment
Procedure: Whole cell recordings were accomplished with HT-29 cells at room temperature. The pipette solution contained (in mM): 30 CsCl, 100 Cs-aspartate, 1 MgCl2, 0.5 EGTA, 2 Tris-ATP, and 10 HEPES (pH 7.2 with CsOH), and the bath solution contained (in mM) 140 N-methyl-D-glucamine chloride (NMDG-Cl), 1 CaCl2, 1 MgCl2, 10 glucose, and 10 HEPES (pH 7.2). In one set of studies, symmetric NMDG-Cl solutions contained 140 mM NMDG-Cl, 1 mM MgCl2, 0.5 mM EGTA, 2 mM Tris-ATP, and 10 mM HEPES, pH 7.2. Pipettes were pulled from borosilicate glass and had resistances of 3-5 MΩ after fire polishing. Seal resistances were typically between 3-10 GΩ. After establishing the whole cell configuration, CaCCs were activated by 1 μM ionomycin. Whole cell currents were elicited by applying hyperpolarizing and depolarizing voltage pulses from a holding potential of 0 mV to potentials between −120 mV and +120 mV in steps of 20 mV. Currents were filtered at 5 kHz, and digitized and analyzed using an AxoScope 10.0 system and a Digidata 1440A […] (Molecular Devices, Sunnyvale, Calif.). Mean currents were expressed as current densities (picoampere per picofarad (pA/pF)).

human wildtype CFTR = target: T1, human wildtype CFTR (Homo sapiens, UniProt P13569); test: Iodide influx in FRT cells expressing human wildtype CFTR; format: cell-based; details: 20 μM
T1 construct: expressed in transfected cells; host or cells: Fisher rat thyroid (FRT) cells
T1 sequence (P13569 whole entry): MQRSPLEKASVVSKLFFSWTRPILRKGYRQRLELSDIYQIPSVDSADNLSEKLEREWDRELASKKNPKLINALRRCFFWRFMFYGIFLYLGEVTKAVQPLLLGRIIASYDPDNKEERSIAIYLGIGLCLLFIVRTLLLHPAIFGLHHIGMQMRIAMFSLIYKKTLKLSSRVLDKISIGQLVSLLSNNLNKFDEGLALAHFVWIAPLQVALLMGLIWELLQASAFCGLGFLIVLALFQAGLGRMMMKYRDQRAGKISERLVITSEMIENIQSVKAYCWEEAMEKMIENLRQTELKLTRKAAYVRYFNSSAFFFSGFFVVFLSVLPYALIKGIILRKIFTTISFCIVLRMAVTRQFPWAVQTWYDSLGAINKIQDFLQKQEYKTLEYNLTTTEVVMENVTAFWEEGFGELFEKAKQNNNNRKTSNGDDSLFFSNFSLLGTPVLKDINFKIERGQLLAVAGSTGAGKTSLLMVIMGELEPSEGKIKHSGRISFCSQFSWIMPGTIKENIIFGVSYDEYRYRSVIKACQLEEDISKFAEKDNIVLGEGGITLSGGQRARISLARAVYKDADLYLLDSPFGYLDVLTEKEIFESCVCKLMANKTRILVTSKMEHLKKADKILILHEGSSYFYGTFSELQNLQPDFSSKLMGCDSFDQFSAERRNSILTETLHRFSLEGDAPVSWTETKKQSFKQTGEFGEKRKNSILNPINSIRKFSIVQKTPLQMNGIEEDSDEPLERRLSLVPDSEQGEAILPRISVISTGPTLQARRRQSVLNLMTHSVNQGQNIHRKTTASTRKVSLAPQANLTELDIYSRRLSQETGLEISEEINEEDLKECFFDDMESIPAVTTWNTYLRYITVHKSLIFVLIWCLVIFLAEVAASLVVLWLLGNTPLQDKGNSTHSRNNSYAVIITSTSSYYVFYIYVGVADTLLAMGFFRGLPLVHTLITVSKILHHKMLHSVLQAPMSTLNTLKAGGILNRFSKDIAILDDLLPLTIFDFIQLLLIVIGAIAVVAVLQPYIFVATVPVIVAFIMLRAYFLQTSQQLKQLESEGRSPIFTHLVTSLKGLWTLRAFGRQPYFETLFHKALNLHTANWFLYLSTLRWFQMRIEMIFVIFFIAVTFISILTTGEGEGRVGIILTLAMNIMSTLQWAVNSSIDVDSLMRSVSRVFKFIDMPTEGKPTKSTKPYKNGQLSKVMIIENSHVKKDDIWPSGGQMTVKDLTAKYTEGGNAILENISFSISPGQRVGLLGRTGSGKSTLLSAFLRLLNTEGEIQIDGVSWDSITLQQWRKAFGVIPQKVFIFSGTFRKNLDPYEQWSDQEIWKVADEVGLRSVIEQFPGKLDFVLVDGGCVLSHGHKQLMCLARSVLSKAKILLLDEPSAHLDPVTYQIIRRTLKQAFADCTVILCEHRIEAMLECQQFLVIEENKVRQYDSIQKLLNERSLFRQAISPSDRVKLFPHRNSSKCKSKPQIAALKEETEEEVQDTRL
Procedure: Cystic Fibrosis Transmembrane Conductance Regulator (CFTR) Experiments were performed to determine whether the compounds affected CFTR because CFTR is a major intestinal chloride channel and evidence exists for cross-talk between cAMP and calcium signaling in intestinal cell chloride secretion (Schultheiss et al., Eur. J. Pharmacol. 546:161-70 (2006); Takahashi et al., J. Med. Microbiol. 49:801-10 (2000); Chao et al., EMBO J. 13:1065-72 (1994)). As described (Ma et al., J. Clin. Invest. 110:1651-8 (2002)), FRT cells expressing human wildtype CFTR and YFP-H148Q/I152L, at 100% confluence, were washed 3 times with PBS, leaving 60 μL. CFTR was activated by a cocktail containing forskolin (20 μM), genistein (50 μM), and isobutylmethylxanthine (100 μM). Iodide influx as described in Example 1 was measured at 10 min after addition of test compounds by determining YFP fluorescence for 2 s before and 20 s after addition of 165 μl of PBS-iodide.

[4] = Aqueous solubility in PBS by optical absorbance of a saturated solution; format: physicochemical; details: aqueous buffer, thermodynamic from solid
From the text: The high aqueous solubility is a consequence of their polarity and negative charge at physiological pH.

Compound | ATP or carbachol-induced [Ca2+]i elevations [1] | % inhibition at 25 μM ([2]; class B aminothiazoles) | ATP-induced short-circuit current reduced (CaCC in T84 cells; 10 μM compound) | ATP-induced short-circuit current reduced (CaCC in T84 cells; 30 μM compound) | agonist-induced CaMKII phosphorylation (CaMKII phosphorylation) | calcium-dependent chloride current reduced ([3]; 0.1 μM compound) | calcium-dependent chloride current reduced ([3]; 1 μM compound) | calcium-dependent chloride current reduced ([3]; 10 μM compound) | ionomycin-induced chloride currents, symmetric NMDG-Cl solutions [3] | CFTR inhibition (iodide influx), positive control (human wildtype CFTR) | % inhibition at 25 μM ([2]; class A aminothiophenes) | solubility [4]
2-hydroxy-5-(4-p-tolylthiazol-2-ylamino)benzoic acid [CaCCinh-B01] | did not significantly reduce | 100% | 29±11% | 64±3% | did not significantly affect | 11±7% | 34±12% | 77±4% | reduced ionomycin-induced currents |  |  | 
O=C(O)c1ccc(C=C2SC(=S)N(c3cccc(C(F)(F)F)c3)C2=O)cc1 [CFTRinh-172, 3-[(3-trifluoromethyl)phenyl]-5-[(4-carboxyphenyl)methylene]-2-thioxo-4-thiazolidinone, reference compound] |  |  |  |  |  |  |  |  |  | inhibition |  | 
CC(C)(C)C1CCc2c(sc(NC(=O)c3ccco3)c2C(=O)O)C1 (stereo not drawn) [CaCCinh-A01, 6-tert-butyl-2-(furan-2-carboxamido)-4,5,6,7-tetrahydrobenzo[b]thiophene-3-carboxylic acid] | did not significantly reduce |  | 38±7% | 78±3% | did not significantly affect | 38±14% | 66±10% | 91±1% | reduced ionomycin-induced currents |  | 100% | > 500 µM
COc1ccc(Nc2nc(-c3ccc(OC)cc3)c(CCC(=O)O)s2)cc1 [CaCCinh-B14, 3-(4-(4-methoxyphenyl)-2-(4-methoxyphenylamino)thiazol-5-yl)propanoic acid] |  | 18% |  |  |  |  |  |  |  |  |  | 

Source: patent US9789095B2, “Inhibitors of calcium-activated chloride channels” (The Regents of the University of California, priority 2007, dated 2017)
